In data set [1] the test system is Staph. epidermidis IID 866. Kind of data set: Antibacterial activity (minimum effective inhibitory concentration). Type of data set: cell-based. As to conditions: Staphylococcus epidermidis, IID866, read-out: minimum effective inhibitory concentrations. The text has this:
(§1) Antibacterial activities (minimum effective inhbitory concentrations) of compounds of formula I (taken from the following Examples) are shown in the following Table.

Data set [2] deals with Kleb. pneumoniae ATCC 10031. The data set is described as above. Type of data set: cell-based. As to conditions: Klebsiella pneumoniae, ATCC10031, read-out: minimum effective inhibitory concentrations.
Source text: as §1

In data set [3] the test system is Serr. marcescense NY-10. Described as above. Type of data set: cell-based. Conditions: read-out: minimum effective inhibitory concentrations.
Source text: as §1

Data set [4] has as its system E. coli NIHJ. The description is as above. Type of data set: cell-based. Conditions: Escherichia coli, read-out: minimum effective inhibitory concentrations.
Source text: as §1

Data set [5] deals with Ps. aeruginosa NCTC 10490. Described as above. Type of data set: cell-based. Conditions: Pseudomonas aeruginosa, NCTC10490, read-out: minimum effective inhibitory concentrations.
Source text: as §1

The nature of data set [6]: Solubility in water. Type of data set: physicochemical.

Molecules are shown by their SMILES. In brackets after ≈: the same amount, converted by molar mass. Like-named read-outs stand apart in the source and are kept apart here.

As for `CON=C(C(=O)NC1C(=O)N2C(C(=O)[O-])=C(C[n+]3ccc4c(c3)NC(=O)CO4)CSC12)c1csc(N)n1` (stereo not drawn) [Example 11, (Z)-7-[α-(2-amino-4-thiazolyl)-α-methoxyimino-acetamido]-3-[[6-(3-oxo-3,4-dihydro-2H-pyrido[4,3-b]-1,4-oxazinio)]methyl -Δ^3-cephem-4-carboxylate], the MIC in data set [1] was 0.78 µg/mL (≈ 1.43 µM); in data set [2], under 0.2 µg/mL; in data set [3] (Serr. marcescense NY-10), under 0.2 µg/mL; in data set [4] (E. coli NIHJ), under 0.2 µg/mL; in data set [5], 1.56 µg/mL (≈ 2.86 µM).

Turning to `CON=C(C(=O)NC1C(=O)N2C(C(=O)[O-])=C(C[n+]3ccc4c(c3)N(OC)C(=O)CO4)CSC12)c1csc(N)n1` (stereo not drawn) [Example 10], the MIC in data set [1] was 6.25 µg/mL (≈ 10.9 µM); in data set [2], under 0.2 µg/mL; in data set [3] (Serr. marcescense NY-10), 0.2 µg/mL (≈ 0.347 µM); in data set [4] (E. coli NIHJ) it was under 0.2 µg/mL; in data set [5] it was 0.39 µg/mL (≈ 0.678 µM).

As to `CO/N=C(\C(=O)N[C@@H]1C(=O)N2C(C(=O)[O-])=C(C[n+]3ccc(OCC(O)CO)c(N)c3)CS[C@H]12)c1csc(N)n1` (stereo partly drawn) [Example 6, (Z ) -7-[α-(2-amino-4-thiazolyl)-α-methoxyiminoacetamido]-3-[3-amino-4-(2,3-dihydroxypropyloxy)pyridiniomethyl]-Δ^3-cephem-4-carboxylate], the MIC in data set [1] is 0.78 µg/mL (≈ 1.35 µM); in data set [2], under 0.2 µg/mL; in data set [3] (Serr. marcescense NY-10) it was under 0.2 µg/mL; in data set [4] (E. coli NIHJ) it was under 0.2 µg/mL; in data set [5], 1.56 µg/mL (≈ 2.69 µM).

Regarding `CC(C)(ON=C(C(=O)NC1C(=O)N2C(C(=O)[O-])=C(C[n+]3cc(N)cc(N)c3)CSC12)c1csc(N)n1)C(=O)O` (stereo not drawn) [Example 2, (Z)-7-[λ-(2-amino-4 thiazolyl)-λ-(1-carboxy-1-methylethoxyimino)acetamido]--3-(3,5-diamino-1-pyridiniomethyl)-Δ^3-cephem-4-carboxylate], the MIC in data set [1] was 1.56 µg/mL (≈ 2.71 µM); in data set [2], under 0.2 µg/mL; in data set [3] (Serr. marcescense NY-10) it was under 0.2 µg/mL; in data set [4] (E. coli NIHJ), under 0.2 µg/mL; in data set [5], 0.39 µg/mL (≈ 0.676 µM).

Consider `CON=C(C(=O)NC1C(=O)N2C(C(=O)[O-])=C(C[n+]3ccc4c(c3)NCCO4)CSC12)c1csc(N)n1` (stereo not drawn) [Example 13, (Z)-7-[α-(2-amino-4-thiazolyl) -α-methoxyiminoacetamido]-3-[[6-(3,4-dihydro-2H-pyrido[4,3-b1-1,4-oxazinio)]methyl]-Δ^3-cephem-4-carboxylate], for which the MIC is 0.39 µg/mL (≈ 0.734 µM) in data set [1]; under 0.2 µg/mL in data set [2]; under 0.2 µg/mL in data set [3] (Serr. marcescense NY-10); under 0.2 µg/mL in data set [4] (E. coli NIHJ); 0.78 µg/mL (≈ 1.47 µM) in data set [5].

`CO/N=C(\C(=O)N[C@@H]1C(=O)N2C(C(=O)[O-])=C(C[n+]3ccc(OC)c(N)c3)CS[C@H]12)c1csc(N)n1` [Example 5, (Z)-7-[α-(2-amino-4-thiazolyl)-α-methoxyiminoacetamido,]-3-(3-amino-4-methoxypyridiniomethyl)-Δ^3-cephem-4-carboxylate]: in data set [6], the solubility is over 230 mg/mL. The MIC in data set [1] is 0.2 µg/mL (≈ 0.385 µM); in data set [2], under 0.2 µg/mL; in data set [3] (Serr. marcescense NY-10) it was under 0.2 µg/mL; in data set [4] (E. coli NIHJ), under 0.2 µg/mL; in data set [5], 1.56 µg/mL (≈ 3 µM).

For the molecule `CO/N=C(\C(=O)N[C@@H]1C(=O)N2C(C(=O)[O-])=C(C[n+]3ccc(C)c(N)c3)CS[C@H]12)c1csc(N)n1` [Example 9, (Z)-1-[α-(2-amino-4-thiazolyl)-α-methoxyiminoacet--amido]-3-(3-amino-4-methylpyridiniomethyl)-Δ^3-cephem-4-carboxylic acid], the MIC was 0.2 µg/mL (≈ 0.397 µM) in data set [1]; under 0.2 µg/mL in data set [2]; under 0.2 µg/mL in data set [3] (Serr. marcescense NY-10); under 0.2 µg/mL in data set [4] (E. coli NIHJ); 1.56 µg/mL (≈ 3.1 µM) in data set [5].

Take `CON=C(C(=O)NC1C(=O)N2C(C(=O)[O-])=C(C[n+]3ccc4c(c3)N(O)C(=O)CO4)CSC12)c1csc(N)n1` (stereo not drawn) [Example 12, (Z)-7-[α-(2-amino-4-thiazolyl)-α-methoxyiminoacetamido]-3-[[6-(4-hydroxy-3-oxo-3,4-dihydro-2H-pyrido[4,3-b]-1,4-oxazinio)]methyl]-Δ^3-cephem-4-carboxylate]: the MIC is 1.56 µg/mL (≈ 2.78 µM) in data set [1]; under 0.2 µg/mL in data set [2]; under 0.2 µg/mL in data set [3] (Serr. marcescense NY-10); under 0.2 µg/mL in data set [4] (E. coli NIHJ); 1.56 µg/mL (≈ 2.78 µM) in data set [5].

As to `CON=C(C(=O)NC1C(=O)N2C(C(=O)[O-])=C(C[n+]3ccc(N)c(N)c3)CSC12)c1csc(N)n1` (stereo not drawn) [Example 3, (Z)-7-[λ-(2-amino-4-thiazolyl)-λ-(methoxyimino)acetamido]-3-(3,4-diamino-1-pyridiniomethyl)-Δ^3-cephem-4-carboxylate], the MIC in data set [1] is 0.2 µg/mL (≈ 0.396 µM); in data set [2] it was under 0.2 µg/mL; in data set [3] (Serr. marcescense NY-10), under 0.2 µg/mL; in data set [4] (E. coli NIHJ), under 0.2 µg/mL; in data set [5] it was 1.56 µg/mL (≈ 3.09 µM).

As for `CC(C)(O/N=C(\C(=O)N[C@@H]1C(=O)N2C(C(=O)[O-])=C(C[n+]3ccccc3)CS[C@H]12)c1csc(N)n1)C(=O)O` [cefta-zidime, reference compound], the MIC in data set [1] is 3.13 µg/mL (≈ 5.73 µM); in data set [2] it was under 0.2 µg/mL; in data set [3], under 0.2 µg/mL; in data set [4], under 0.2 µg/mL; in data set [5], 0.78 µg/mL (≈ 1.43 µM).

What is called solubility is how much of the substance goes into solution per volume. A higher solubility goes with much dissolved substance.

The values above are taken from EP0160546A2, “Cephalosporin compounds, and their production, and medicaments containing them” (YAMANOUCHI PHARMACEUTICAL CO. LTD., priority 1984, dated 1985).
